Measured values taken from patent US9156796B2, “Benzoimidazole-carboxylic acid amide derivatives as APJ receptor modulators” (SANOFI, priority 2013, dated 2015).

Target: T1, human apelin receptor (Homo sapiens, UniProt P35414)
T1 construct: expressed in transfected cells
T1 sequence (P35414 1-380): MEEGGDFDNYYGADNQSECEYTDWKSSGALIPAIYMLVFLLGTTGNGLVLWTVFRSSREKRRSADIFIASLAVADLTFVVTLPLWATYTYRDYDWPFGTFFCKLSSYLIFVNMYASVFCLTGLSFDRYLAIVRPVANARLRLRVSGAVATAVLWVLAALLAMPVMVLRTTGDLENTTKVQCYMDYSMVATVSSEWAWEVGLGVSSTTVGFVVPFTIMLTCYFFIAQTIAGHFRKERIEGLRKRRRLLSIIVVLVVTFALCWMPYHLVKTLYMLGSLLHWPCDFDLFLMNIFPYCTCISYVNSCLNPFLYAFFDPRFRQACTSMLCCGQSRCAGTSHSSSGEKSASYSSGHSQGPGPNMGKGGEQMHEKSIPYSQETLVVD
Assay: Determination of agonism on the human apelin receptor by a calcium fluorescence assay (FLIPR)
Assay type: cell-based
Conditions: HEK293 cells stably transfected with human apelin receptor and Giaq protein, Fluo-4 calcium fluorescence, read-out: EC50 (APJ agonism)
Method in brief: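 Agonist EC50s come from peak intracellular calcium transients recorded by FLIPR Tetra, scaled to the 1 μM apelin-13 maximum per plate. Test system: HEK293 stably transfected with human apelin receptor plus Giaq, Fluo-4-loaded (4 μM, 1 h, 37 °C, pH 7.4 buffer with probenecid); ≥7 concentrations, triplicates.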

Row | SMILES | EC50
1 | CCC(CC)n1c(Cc2cccs2)nc2cc(C(=O)N[C@@H](Cc3ccccc3)C(=O)O)ccc21 [Example 124, (S)-2-{[1-(1-Ethyl-propyl)-2-thiophen-2-ylmethyl-1H-benzoimidazole-5-carbonyl]-amino}-3-phenyl-propionic acid] | 9.35 µM
2 | CCC(CC)n1c(Cc2cccs2)nc2cc(C(=O)N[C@@H](CC3CCCCC3)C(=O)O)ccc21 [Example 125, (S)-3-Cyclohexyl-2-{[1-(1-ethyl-propyl)-2-thiophen-2-ylmethyl-1H-benzoimidazole-5-carbonyl]-amino}-propionic acid] | 0.078 µM
3 | CCC(CC)n1c(Cc2cccs2)nc2cc(C(=O)NC(CC(C)(C)C)C(=O)O)ccc21 (stereo not shown) [Example 126, 2-{[1-(1-Ethyl-propyl)-2-thiophen-2-ylmethyl-1H-benzoimidazole-5-carbonyl]-amino}-4,4-dimethyl-pentanoic acid] | 3.93 µM
4 | CC(C)C[C@H](NC(=O)c1ccc2c(c1)nc(Cc1cccs1)n2CC(C)C)C(=O)O [Example 127, (S)-2-[(1-Isobutyl-2-thiophen-2-ylmethyl-1H-benzoimidazole-5-carbonyl)-amino]-4-methyl-pentanoic acid] | 15 µM
5 | CC(C)C[C@H](NC(=O)c1ccc2c(c1)nc(CC1CCCC1)n2CC(C)C)C(=O)O [Example 128, (S)-2-[(2-Cyclopentylmethyl-1-isobutyl-1H-benzoimidazole-5-carbonyl)-amino]-4-methyl-pentanoic acid] | 10 µM
6 | CCC(CC)n1c(CC2CCCC2)nc2cc(C(=O)N[C@@H](CC(C)C)C(=O)O)ccc21 [Example 129, (S)-2-{[2-Cyclopentylmethyl-1-(1-ethyl-propyl)-1H-benzoimidazole-5-carbonyl]-amino}-4-methyl-pentanoic acid] | 2.68 µM
7 | CCC(CC)n1c(Cc2cccs2)nc2cc(C(=O)N[C@@H](CCC(C)C)C(=O)O)ccc21 [Example 130, (S)-2-{[1-(1-Ethyl-propyl)-2-thiophen-2-ylmethyl-1H-benzoimidazole-5-carbonyl]-amino}-5-methyl-hexanoic acid] | 0.293 µM
8 | CC(C)C[C@H](NC(=O)c1ccc2c(c1)nc(Cc1ccoc1)n2C1CCCCC1C)C(=O)O (stereo partly drawn) [Example 131, (S)-2-{[2-Furan-3-ylmethyl-1-(2-methyl-cyclohexyl)-1H-benzoimidazole-5-carbonyl]-amino}-4-methyl-pentanoic acid] | 0.185 µM
9 | CC(C)C[C@H](NC(=O)c1ccc2c(c1)nc(Cc1cccs1)n2-c1ccccc1)C(=O)O [Example 132, (S)-4-Methyl-2-[(1-phenyl-2-thiophen-2-ylmethyl-1H-benzoimidazole-5-carbonyl)-amino]-pentanoic acid] | 0.7 µM
10 | CCC(C)Cn1c(CC2CCCCC2)nc2cc(C(=O)N[C@@H](CC3CCCCC3)C(=O)O)ccc21 (stereo partly drawn) [Example 133, (S)-3-Cyclohexyl-2-{[2-cyclohexylmethyl-1-(2-methyl-butyl)-1H-benzoimidazole-5-carbonyl]-amino}-propionic acid] | 2.35 µM
11 | CC(C)Cn1c(CC2CCCCC2)nc2cc(C(=O)N[C@@H](CC3CCCCC3)C(=O)O)ccc21 [Example 134, (S)-3-Cyclohexyl-2-[(2-cyclohexylmethyl-1-isobutyl-1H-benzoimidazole-5-carbonyl)-amino]-propionic acid] | 7.15 µM
12 | CCC(C)Cn1c(CC2CCCCC2)nc2cc(C(=O)N[C@@H](CC(C)C)C(=O)O)ccc21 (stereo partly drawn) [Example 135, (S)-2-{[2-Cyclohexylmethyl-1-(2-methyl-butyl)-1H-benzoimidazole-5-carbonyl]-amino}-4-methyl-pentanoic acid] | 3.8 µM
13 | CC(C)C[C@H](NC(=O)c1ccc2c(c1)nc(Cc1ccsc1)n2-c1ccccc1)C(=O)O [Example 136, (S)-4-Methyl-2-[(1-phenyl-2-thiophen-3-ylmethyl-1H-benzoimidazole-5-carbonyl)-amino]-pentanoic acid] | 2.7 µM
14 | CCC(C)Cn1c(Cc2ccsc2)nc2cc(C(=O)N[C@@H](CC(C)C)C(=O)O)ccc21 (stereo partly drawn) [Example 137, (S)-4-Methyl-2-{[1-(2-methyl-butyl)-2-thiophen-3-ylmethyl-1H-benzoimidazole-5-carbonyl]-amino}-pentanoic acid] | 9.5 µM
15 | CC(C)C[C@H](NC(=O)c1ccc2c(c1)nc(Cc1ccoc1)n2C1CCCCC1)C(=O)O [Example 138, (S)-2-[(1-Cyclohexyl-2-furan-3-ylmethyl-1H-benzoimidazole-5-carbonyl)-amino]-4-methyl-pentanoic acid] | 2.93 µM
16 | CC(C)C[C@H](NC(=O)c1ccc2c(c1)nc(Cc1ccsc1)n2C1CCCCC1C)C(=O)O (stereo partly drawn) [Example 139, (S)-4-Methyl-2-{[1-(2-methyl-cyclohexyl)-2-thiophen-3-ylmethyl-1H-benzoimidazole-5-carbonyl]-amino}-pentanoic acid] | 0.285 µM

Row | SMILES | EC50
17 | CCC(C)n1c(Cc2cccs2)nc2cc(C(=O)N[C@@H](CC3CCCCC3)C(=O)O)ccc21 (stereo partly drawn) [Example 140, (S)-2-[(1-sec-Butyl-2-thiophen-2-ylmethyl-1H-benzoimidazole-5-carbonyl)-amino]-3-cyclohexyl-propionic acid] | 3.8 µM
18 | CCC(CC)n1c(CC2CCCCC2)nc2cc(C(=O)N[C@@H](CC3CCCCC3)C(=O)O)ccc21 [Example 141, (S)-3-Cyclohexyl-2-{[2-cyclohexylmethyl-1-(1-ethyl-propyl)-1H-benzoimidazole-5-carbonyl]-amino}-propionic acid] | 23 µM
19 | CCC(C)n1c(Cc2ccsc2)nc2cc(C(=O)N[C@@H](CC(C)C)C(=O)O)ccc21 (stereo partly drawn) [Example 142, (S)-2-[(1-sec-Butyl-2-thiophen-3-ylmethyl-1H-benzoimidazole-5-carbonyl)-amino]-4-methyl-pentanoic acid] | 12 µM
20 | CC(C)C[C@H](NC(=O)c1ccc2c(c1)nc(Cc1ccccc1)n2C1CCCCC1C)C(=O)O (stereo partly drawn) [Example 143, (S)-2-{[2-Benzyl-1-(2-methyl-cyclohexyl)-1H-benzoimidazole-5-carbonyl]-amino}-4-methyl-pentanoic acid] | 2.45 µM
21 | Cc1ccc(Cc2nc3cc(C(=O)N[C@@H](CC(C)C)C(=O)O)ccc3n2C2CCCCC2C)s1 (stereo partly drawn) [Example 144, (S)-4-Methyl-2-{[1-(2-methyl-cyclohexyl)-2-(5-methyl-thiophen-2-ylmethyl)-1H-benzoimidazole-5-carbonyl]-amino}-pentanoic acid] | 23 µM
22 | CCC(C)Cn1c(Cc2cccs2)nc2cc(C(=O)N[C@@H](CC3CCCCC3)C(=O)O)ccc21 (stereo partly drawn) [Example 145, (S)-3-Cyclohexyl-2-{[1-(2-methyl-butyl)-2-thiophen-2-ylmethyl-1H-benzoimidazole-5-carbonyl]-amino}-propionic acid] | 18 µM
23 | CC(C)C[C@H](NC(=O)c1ccc2c(c1)nc(Cc1cccs1)n2C1CCCCC1C)C(=O)O (stereo partly drawn) [Example 146, (S)-4-Methyl-2-{[1-(2-methyl-cyclohexyl)-2-thiophen-2-ylmethyl-1H-benzoimidazole-5-carbonyl]-amino}-pentanoic acid] | 0.328 µM
24 | CCC(C)n1c(Cc2cccs2)nc2cc(C(=O)N[C@@H](CC(C)C)C(=O)O)ccc21 (stereo partly drawn) [Example 147, (S)-2-[(1-sec-Butyl-2-thiophen-2-ylmethyl-1H-benzoimidazole-5-carbonyl)-amino]-4-methyl-pentanoic acid] | 4.55 µM
25 | CC(C)C[C@H](NC(=O)c1ccc2c(c1)nc(Cc1ccccc1)n2C1CCCCC1)C(=O)O [Example 148, (S)-2-[(2-Benzyl-1-cyclohexyl-1H-benzoimidazole-5-carbonyl)-amino]-4-methyl-pentanoic acid] | 15 µM
26 | CCC(C)n1c(CC2CCCC2)nc2cc(C(=O)N[C@@H](CC(C)C)C(=O)O)ccc21 (stereo partly drawn) [Example 149, (S)-2-[(1-sec-Butyl-2-cyclopentylmethyl-1H-benzoimidazole-5-carbonyl)-amino]-4-methyl-pentanoic acid] | 27 µM
27 | CC(C)C[C@H](NC(=O)c1ccc2c(c1)nc(CC1CCCC1)n2C1CCCCC1C)C(=O)O (stereo partly drawn) [Example 150, (S)-2-{[2-Cyclopentylmethyl-1-(2-methyl-cyclohexyl)-1H-benzoimidazole-5-carbonyl]-amino}-4-methyl-pentanoic acid] | 2.8 µM
28 | CCC(CC)n1c(CC2CCCO2)nc2cc(C(=O)N[C@@H](CC3CCCCC3)C(=O)O)ccc21 (stereo partly drawn) [Example 151, (S)-3-Cyclohexyl-2-{[1-(1-ethyl-propyl)-2-(tetrahydro-furan-2-ylmethyl)-1H-benzoimidazole-5-carbonyl]-amino}-propionic acid] | 0.89 µM
29 | CC(C)C[C@H](NC(=O)c1ccc2c(c1)nc(Cc1ccsc1)n2C1CCCCC1)C(=O)O [Example 152, (S)-2-[(1-Cyclohexyl-2-thiophen-3-ylmethyl-1H-benzoimidazole-5-carbonyl)-amino]-4-methyl-pentanoic acid] | 3.95 µM
30 | CCC(CC)n1c(Cc2cccs2)nc2cc(C(=O)N[C@H](C(=O)O)[C@H](C)CC)ccc21 [Example 153, (2S,3R)-2-{[1-(1-Ethyl-propyl)-2-thiophen-2-ylmethyl-1H-benzoimidazole-5-carbonyl]-amino}-3-methyl-pentanoic acid] | 0.35 µM
31 | CCC(CC)n1c(Cc2ccoc2)nc2cc(C(=O)N[C@H](CC(=O)O)CC(C)C)ccc21 [Example 154, (S)-3-{[1-(1-Ethyl-propyl)-2-furan-3-ylmethyl-1H-benzoimidazole-5-carbonyl]-amino}-5-methyl-hexanoic acid] | 0.27 µM
